According to PubChem BioAssay (NCI):
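Dose response: 5 concentrations. Exposure: 48 h. Format: 96-well plates. Endpoint: linear interpolation; highest concentration if not reached. GI50 is the concentration that inhibits growth by half. TGI marks complete inhibition of growth.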

What was measured:
Assay in all cases: NCI tumour cell line growth inhibition, 48 h
UO-31 renal = tested on: UO-31 renal
OVCAR-8 ovarian = tested on: OVCAR-8 ovarian
SK-MEL-2 melanoma = tested on: SK-MEL-2 melanoma
M14 melanoma = tested on: M14 melanoma
SF-295 CNS = tested on: SF-295 CNS
SF-268 CNS = tested on: SF-268 CNS
NCI/ADR-RES ovarian = tested on: NCI/ADR-RES ovarian
LOX IMVI melanoma = tested on: LOX IMVI melanoma
IGROV1 ovarian = tested on: IGROV1 ovarian
HL-60(TB) leukemia = tested on: HL-60(TB) leukemia

Row | SMILES | GI50 (UO-31 renal) [µM] | TGI (UO-31 renal) [µM] | GI50 (OVCAR-8 ovarian) [µM] | TGI (OVCAR-8 ovarian) [µM] | GI50 (SK-MEL-2 melanoma) [µM] | TGI (SK-MEL-2 melanoma) [µM] | GI50 (M14 melanoma) [µM] | TGI (M14 melanoma) [µM] | GI50 (SF-295 CNS) [µM] | TGI (SF-295 CNS) [µM] | GI50 (SF-268 CNS) [µM] | TGI (SF-268 CNS) [µM] | GI50 (NCI/ADR-RES ovarian) [µM] | TGI (NCI/ADR-RES ovarian) [µM] | GI50 (LOX IMVI melanoma) [µM] | TGI (LOX IMVI melanoma) [µM] | GI50 (IGROV1 ovarian) [µM] | TGI (IGROV1 ovarian) [µM] | TGI (HL-60(TB) leukemia) [µM]
1 | NC(N)=N/N=C/c1c(-c2cc(Cl)sc2Cl)nc2n1CCS2 | 17.3 | > 50 | 10.3 | 22.1 | 22.6 | > 50 | 6.93 | 14.3 | 8.75 | 17.1 | 11.3 | 23.5 | > 50 | > 50 | 8.33 | 15.8 | 16.4 | > 50 | 
2 | O=C(O)c1[nH]c(C(=O)O)c(CC(F)(F)C(F)(F)C(F)(F)F)c1CC(F)(F)C(F)(F)C(F)(F)F |  | > 100 |  | > 100 |  |  |  | > 100 |  | > 100 |  | > 100 |  |  |  | > 100 |  | > 100 | > 100
3 | COc1ccc([N+](=O)[O-])c2c(NCC(O)CO)ccnc12 (centres undefined) |  | > 100 |  | > 100 |  | 71.9 |  | > 100 |  | > 100 |  | > 100 |  |  |  | > 100 |  | 97.5 | > 100
4 | CC1(C)OC2C(=O)OC(COCc3ccccc3)C2O1 (centres undefined) |  | > 100 |  | > 100 |  | > 100 |  | > 100 |  | > 100 |  | > 100 |  |  |  | > 100 |  | > 100 | > 100
5 | Cn1c(=O)c2c(nc3n2CCC(=O)N3)n(C)c1=O |  | > 100 |  | > 100 |  | > 100 |  |  |  | > 100 |  | > 100 |  |  |  | > 100 |  | > 100 | > 100
6 | c1cncc(C2c3[nH]c4ccccc4c3CCN2CCN2CCCCC2)c1 (centres undefined) |  | > 100 |  | > 100 |  |  |  | 32.3 |  | > 100 |  | > 100 |  |  |  | > 100 |  | > 100 | > 100
7 | Cc1ccc(S(=O)(=O)ON/N=C2/C3OC3[C@@H]3CCCC[C@H]23)cc1 (some centres undefined) |  | > 100 |  | > 100 |  | > 100 |  | > 100 |  | > 100 |  | > 100 |  |  |  |  |  | > 100 | > 100
8 | C=CCN(N=O)C(=O)N(CCC)CCCC(NC(C)=O)C(=O)NCc1ccccc1 (centres undefined) |  | > 100 |  | > 100 |  | > 100 |  | > 100 |  | > 100 |  | > 100 |  |  |  | > 100 |  | > 100 | > 100
9 | CCCN(CCCCC(NC(C)=O)C(=O)NCc1ccccc1)C(=O)NC (centres undefined) |  | > 100 |  | > 100 |  | > 100 |  | > 100 |  | > 100 |  | > 100 |  |  |  | > 100 |  | > 100 | 
10 | c1cc(-c2sc(-c3ccncc3)c(-c3ccncc3)c2-c2ccncc2)ccn1 |  | 30 |  | > 100 |  | 48.1 |  | 31.2 |  | 41.6 |  | 37.7 |  | 82 |  | 30.8 |  | > 100 | 
11 | CCc1cccc(C)c1NC(=O)CC1Sc2ccccc2NC1=O (centres undefined) |  | > 100 |  | > 100 |  | > 100 |  | > 100 |  | > 100 |  | > 100 |  |  |  | > 100 |  | > 100 | 47.3
12 | c1ccc(COc2ccc3[nH]c4c(ncc5[nH]c6ccccc6c54)c3c2)cc1 |  | 32.8 |  | 32.2 |  | 30.8 |  | 26.7 |  | 28.2 |  | 34.6 |  |  |  | 32.9 |  | 18.9 | 4.35
13 | CCCCCCCCCCCCC(SCCNC(=O)CCNC(=O)C(O)C(C)(C)COP(=O)(O)OP(=O)(O)OCC1OC(n2cnc3c(N)ncnc32)C(O)C1OP(=O)(O)O)C(=O)NCC(N)=O (centres undefined) |  | > 100 |  | > 100 |  | > 100 |  | > 100 |  | > 100 |  | > 100 |  |  |  | > 100 |  | > 100 | > 100
14 | c1cc2c(cnc3cscc32)s1 |  | > 100 |  | > 100 |  | > 100 |  | > 100 |  | > 100 |  | > 100 |  |  |  | > 100 |  |  | > 100
15 | C=C1C(O)C2C(=C(CC(C)C)C13CC3)C(=O)C(C)(C)C2OC (centres undefined) | > 100 | > 100 | > 100 | > 100 | > 100 | > 100 | > 100 | > 100 | > 100 | > 100 | > 100 | > 100 | > 100 | > 100 | > 100 | > 100 |  |  | 
16 | COC(=O)/C(=N/NC(C)(C)C)C(C(=O)C=C(C)C)C(=O)C(=O)Nc1ccc(Cl)cc1C (centres undefined) |  | > 100 |  | > 100 |  | > 100 |  | > 100 |  | > 100 |  | > 100 |  |  |  |  |  | > 100 | > 100
17 | CC(C)(C)N=CN1CCC(C(c2ccccc2)c2ccccc2)CC1 |  |  |  | > 100 |  | > 100 |  |  |  | > 100 |  | > 100 |  |  |  | > 100 |  | > 100 | 
18 | Cc1c2ncccc2c(C)c2c1[nH]c1ccccc12 |  |  |  | 27.8 |  | 41.4 |  | 44.9 |  | 21.9 |  | 34.8 |  |  |  | 20.8 |  | 29.4 | 
19 | O=C(N=Nc1c(O)[nH]c2ccccc12)c1ccccc1O |  | 79.9 |  | > 100 |  | 63.6 |  | > 100 |  | > 100 |  | > 100 |  |  |  | > 100 |  |  | > 100
20 | CCOC(OC1=C(C#N)CCC1)C(CC)[Se]c1ccccc1 (centres undefined) |  | 73.6 |  | 65.2 |  | 80.8 |  | 32.3 |  | 52.7 |  | 38.7 |  |  |  | 17.7 |  | 71 | 38.4
21 | Cc1cc2occ(C)c(=O)c2c2c1OC(C)(C)S2 |  | > 100 |  | > 100 |  | > 100 |  | > 100 |  | > 100 |  | > 100 |  |  |  | > 100 |  | > 100 | > 100
22 | c1c[nH]c(Cc2ncc(Cc3cnc[nH]3)[nH]2)n1 |  |  |  | > 100 |  | > 100 |  | 36.7 |  | > 100 |  | > 100 |  |  |  | 96.2 |  | 85 | 21.5
23 | Cc1c(C(=O)CC(=O)C(=O)NC2C3CC4CC(C3)CC2C4)[n+](=O)c2ccccc2n1[O-] (centres undefined) |  | > 100 |  | > 100 |  | > 100 |  | > 100 |  | > 100 |  | > 100 |  |  |  | > 100 |  | > 100 | > 100
